Experimental data as given in patent US9550749B2, “Endoparasite control agent and method for using the same” (The University of Tokyo, priority 2012, dated 2017).

Tests used:
[1] = system: Haemonchus contortus L1-stage larvae; experiment: In vivo activity test on Haemonchus nematode (motor ability of L1-stage larvae in 96-well plate); settings: 27° C./95% RH, 4 days
Description: In Vivo Activity Test on Haemonchus Nematode In a 96-well plate, twenty L1-stage larvae (Haemonchus contortus) per well were maintained so that they could freely move, and solutions of compounds of the present invention dissolved at predetermined concentrations in DMSO (the final concentration of DMSO was 0.78% (v/v)) were added at 0.5 Ill/well each. The plate was kept under the conditions of 27° C./95% RH for 4 days. The motor ability of the larvae was examined and the concentration required for 50% inhibition of the motor ability (EC50) was determined. Based on the EC50 value, the activity against the Haemonchus nematode was graded according to the criterion shown below. Grading Criterion A: The EC50 value is lower than 0.5 ppm. B: The EC50 value is 0.5 ppm or higher but lower than 5 ppm. C: The EC50 value is 5 ppm or higher.

[2] = biological target: T1, Ascaris suum succinate-ubiquinone reductase (mitochondrial complex II) (Ascaris suum, UniProt O44074+P92506+P92507); experiment: In vitro measurement of inhibitory activity on Ascaris suum succinate-ubiquinone reductase (mitochondrial complex II); type: biochemical; settings: mitochondria from adult Ascaris suum muscle, UQ2 60 μM, succinate 10 mM, 25° C.
T1 construct: from tissue; host or cells: mitochondria from adult Ascaris suum muscle
T1 sequence (O44074 22-282): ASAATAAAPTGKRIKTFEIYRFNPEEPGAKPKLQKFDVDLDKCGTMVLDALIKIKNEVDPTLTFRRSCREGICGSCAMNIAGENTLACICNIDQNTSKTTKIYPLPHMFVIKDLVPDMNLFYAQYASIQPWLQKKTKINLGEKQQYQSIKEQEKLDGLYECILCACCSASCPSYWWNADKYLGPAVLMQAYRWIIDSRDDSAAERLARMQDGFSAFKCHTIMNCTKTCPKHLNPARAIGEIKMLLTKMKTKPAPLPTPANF
T1 sequence (P92506 32-188): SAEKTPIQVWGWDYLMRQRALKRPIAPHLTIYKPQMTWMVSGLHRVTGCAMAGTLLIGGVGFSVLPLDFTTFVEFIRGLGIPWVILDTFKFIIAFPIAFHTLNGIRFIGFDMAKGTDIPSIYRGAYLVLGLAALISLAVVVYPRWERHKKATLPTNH
T1 sequence (P92507 26-156): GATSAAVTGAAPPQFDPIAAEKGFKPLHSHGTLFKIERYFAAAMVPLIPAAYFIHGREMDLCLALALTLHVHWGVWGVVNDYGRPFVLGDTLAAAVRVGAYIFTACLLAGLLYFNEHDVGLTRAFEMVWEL
T1 sequence (Q33862 19-645 partner): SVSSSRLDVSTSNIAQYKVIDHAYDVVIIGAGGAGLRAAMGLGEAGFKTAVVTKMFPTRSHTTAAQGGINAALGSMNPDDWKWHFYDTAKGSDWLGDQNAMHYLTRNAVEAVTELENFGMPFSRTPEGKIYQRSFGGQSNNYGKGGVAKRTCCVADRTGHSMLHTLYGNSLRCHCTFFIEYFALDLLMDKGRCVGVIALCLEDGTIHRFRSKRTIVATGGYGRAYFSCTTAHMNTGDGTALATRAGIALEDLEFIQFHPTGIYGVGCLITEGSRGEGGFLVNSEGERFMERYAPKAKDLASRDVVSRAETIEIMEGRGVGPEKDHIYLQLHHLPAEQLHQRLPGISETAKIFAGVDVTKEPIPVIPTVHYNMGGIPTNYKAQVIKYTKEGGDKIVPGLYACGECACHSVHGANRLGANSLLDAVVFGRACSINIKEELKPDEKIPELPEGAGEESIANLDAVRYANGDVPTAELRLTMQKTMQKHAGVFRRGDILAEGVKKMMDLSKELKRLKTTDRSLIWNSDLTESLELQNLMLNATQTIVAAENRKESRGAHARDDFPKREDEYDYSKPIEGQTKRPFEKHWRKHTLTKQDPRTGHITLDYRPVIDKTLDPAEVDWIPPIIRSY
Description: In Vitro Measurement of Inhibitory Activity on Ascaris suum Succinate-Ubiquinone Reductase (Mitochondrial Complex II)
To a solution containing 50 mM potassium phosphate (pH 7.4) and 0.1% (w/v) sucrose monolaurate, an electron acceptor ubiquinone-2 (UQ2) was added at a final concentration of 60 μM, and the mixture was allowed to stand at 25° C. for 20 minutes. To this, potassium cyanide (final concentration: 2 mM) and mitochondria prepared from adult Ascaris suum muscle were added, and thorough mixing was done. To aliquots of the mixture, an inhibitor to be tested was added at various concentrations, and the mixtures were allowed to stand at 25° C. for 3 minutes. The enzymatic reaction was initiated by addition of potassium succinate (final concentration: 10 mM). The enzymatic activity was calculated based on the measurement of change in the absorbance at 278 nm of UQ2 (e=1.5×10^4 M^−1 cm^−1), and IC50 was determined from the plot of the inhibition percentage against the inhibitor concentration.

Compound | Grade (EC50, concentration required for 50% inhibition of the motor ability of larvae) [1] | IC50 [2]
O=C(NCCc1ccc(Oc2ncc(C(F)(F)F)cc2Cl)cc1Cl)c1ccccc1C(F)(F)F [Compound 26] | A (The EC50 value is lower than 0.5 ppm.) | 1.4 nM
Cc1ccccc1C(=O)N[C@@H](C)Cn1nc(Cl)cc1C(F)(F)F [Compound 10] | B (The EC50 value is 0.5 ppm or higher but lower than 5 ppm.) | 
C[C@@H](Cn1nc(C(F)(F)F)cc1Br)NC(=O)c1ccccc1C(F)(F)F [Compound 5] | A (The EC50 value is lower than 0.5 ppm.) | 5.8 nM
O=C(NCCc1ncc(C(F)(F)F)cc1Cl)c1ccccc1Br [Compound 35] |  | 2.3 nM
CSc1ccccc1C(=O)NCCc1ccc(Cl)cc1Cl [Compound 28] | A (The EC50 value is lower than 0.5 ppm.) | 1.2 nM
CSc1cc(C(F)(F)F)n(C[C@H](C)NC(=O)c2ccccc2C(F)(F)F)n1 [Compound 18] |  | 3.1 nM
C[C@@H](Cn1nc(Cl)c(Br)c1Cl)NC(=O)c1ccccc1C(F)(F)F [Compound 3] | A (The EC50 value is lower than 0.5 ppm.) | 1.4 nM
C[C@@H](Cn1nc(C(F)(F)F)c(Cl)c1Cl)NC(=O)c1ccccc1C(F)(F)F [Compound 4] | A (The EC50 value is lower than 0.5 ppm.) | 1.9 nM
O=C(NCCc1ncc(C(F)(F)F)cc1Cl)c1c(Cl)cccc1Cl [Compound 40] |  | 39 nM
C[C@@H](Cn1nc(Cl)c(Br)c1C(F)(F)F)NC(=O)c1ccccc1C(F)(F)F [Compound 7] | A (The EC50 value is lower than 0.5 ppm.) | 1.7 nM
C[S+]([O-])c1ccc(CCNC(=O)c2ccccc2C(F)(F)F)c(Cl)c1 (centres unmarked) [Compound 27] | B (The EC50 value is 0.5 ppm or higher but lower than 5 ppm.) | 260 nM
O=C(NCCc1ccc(Cl)cc1Cl)c1ccccc1SC(F)F [Compound 31] |  | 8.2 nM
Cc1ccccc1C(=O)NCCc1ncc(C(F)(F)F)cc1Cl [Compound 37] |  | 2.6 nM
C[C@@H](COc1ncc(C(F)(F)F)cc1Cl)NC(=O)c1ccccc1C(F)(F)F [Compound 23] | A (The EC50 value is lower than 0.5 ppm.) | 1.8 nM
O=C(NCCc1ncc(C(F)(F)F)cc1Cl)c1ccccc1Cl [Compound 34] |  | 2.1 nM
C[C@@H](Cn1nc(Cl)cc1C(F)(F)F)NC(=O)c1ccccc1C(F)(F)F [Compound 1] | A (The EC50 value is lower than 0.5 ppm.) | 5.2 nM
C[C@@H](Cn1nc(Br)c(Br)c1Br)NC(=O)c1ccccc1C(F)(F)F [Compound 14] |  | 1.8 nM
O=C(NCCc1ccc(Cl)cc1Cl)c1ccccc1OC(F)(F)F [Compound 32] | A (The EC50 value is lower than 0.5 ppm.) | 48 nM
O=C(NCCNc1ncc(C(F)(F)F)cc1Cl)c1ccccc1C(F)(F)F [Compound 24] | A (The EC50 value is lower than 0.5 ppm.) | 11 nM
C[C@@H](Cn1nc(C(F)(F)F)cc1Cl)NC(=O)c1ccccc1C(F)(F)F [Compound 2] | A (The EC50 value is lower than 0.5 ppm.) | 
O=C(NCCc1ncc(C(F)(F)F)cc1Cl)c1c(F)cccc1F [Compound 39] |  | 5.3 nM
Cc1ccccc1C(=O)N[C@@H](C)Cn1nc(Cl)c(Br)c1C(F)(F)F [Compound 6] |  | 2 nM
O=C(NCCc1ncc(C(F)(F)F)cc1Cl)c1ccccc1I [Compound 36] | A (The EC50 value is lower than 0.5 ppm.) | 1.2 nM
